Assay results: PMC12595434, “Development of retinoid nuclear receptor pathway antagonists through targeting aldehyde dehydrogenase 1A3” (iScience, 2025)

Legend:
TPX2 = molecular target: T1, TPX2 (Homo sapiens, UniProt Q9ULW0); test: Thermal proteome profiling (TPP) in A375 cells; type: cell-based; conditions: TPX2, 100 nM
T1 construct: Treated A375 cells were harvested from 10 × 15 cm plates; endogenous in cells; host or cells: A375 melanoma cells

Alpha2A = Alpha2A (Homo sapiens, UniProt P08913); test: Off-target profiling panel; type: binding; conditions: read-out: Inhibition by MBE1 at 10 μM (%)
Sequence of Alpha2A (P08913 whole entry): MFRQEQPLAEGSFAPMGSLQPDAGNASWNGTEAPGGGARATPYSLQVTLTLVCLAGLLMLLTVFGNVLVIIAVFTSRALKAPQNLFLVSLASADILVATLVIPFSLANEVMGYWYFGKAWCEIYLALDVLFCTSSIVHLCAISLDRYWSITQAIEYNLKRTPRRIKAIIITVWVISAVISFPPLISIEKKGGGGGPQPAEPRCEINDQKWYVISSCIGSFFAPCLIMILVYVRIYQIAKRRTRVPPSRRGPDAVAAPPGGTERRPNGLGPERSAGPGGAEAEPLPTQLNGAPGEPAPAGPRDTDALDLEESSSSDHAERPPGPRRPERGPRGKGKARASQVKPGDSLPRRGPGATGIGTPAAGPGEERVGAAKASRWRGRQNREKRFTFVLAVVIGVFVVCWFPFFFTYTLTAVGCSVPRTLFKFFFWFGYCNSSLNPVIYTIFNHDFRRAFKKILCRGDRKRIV

hERG = hERG (Homo sapiens, UniProt Q12809); test: Off-target profiling panel; type: binding; conditions: read-out: Inhibition by MBE1 at 10 μM (%)
Sequence of hERG (Q12809 whole entry): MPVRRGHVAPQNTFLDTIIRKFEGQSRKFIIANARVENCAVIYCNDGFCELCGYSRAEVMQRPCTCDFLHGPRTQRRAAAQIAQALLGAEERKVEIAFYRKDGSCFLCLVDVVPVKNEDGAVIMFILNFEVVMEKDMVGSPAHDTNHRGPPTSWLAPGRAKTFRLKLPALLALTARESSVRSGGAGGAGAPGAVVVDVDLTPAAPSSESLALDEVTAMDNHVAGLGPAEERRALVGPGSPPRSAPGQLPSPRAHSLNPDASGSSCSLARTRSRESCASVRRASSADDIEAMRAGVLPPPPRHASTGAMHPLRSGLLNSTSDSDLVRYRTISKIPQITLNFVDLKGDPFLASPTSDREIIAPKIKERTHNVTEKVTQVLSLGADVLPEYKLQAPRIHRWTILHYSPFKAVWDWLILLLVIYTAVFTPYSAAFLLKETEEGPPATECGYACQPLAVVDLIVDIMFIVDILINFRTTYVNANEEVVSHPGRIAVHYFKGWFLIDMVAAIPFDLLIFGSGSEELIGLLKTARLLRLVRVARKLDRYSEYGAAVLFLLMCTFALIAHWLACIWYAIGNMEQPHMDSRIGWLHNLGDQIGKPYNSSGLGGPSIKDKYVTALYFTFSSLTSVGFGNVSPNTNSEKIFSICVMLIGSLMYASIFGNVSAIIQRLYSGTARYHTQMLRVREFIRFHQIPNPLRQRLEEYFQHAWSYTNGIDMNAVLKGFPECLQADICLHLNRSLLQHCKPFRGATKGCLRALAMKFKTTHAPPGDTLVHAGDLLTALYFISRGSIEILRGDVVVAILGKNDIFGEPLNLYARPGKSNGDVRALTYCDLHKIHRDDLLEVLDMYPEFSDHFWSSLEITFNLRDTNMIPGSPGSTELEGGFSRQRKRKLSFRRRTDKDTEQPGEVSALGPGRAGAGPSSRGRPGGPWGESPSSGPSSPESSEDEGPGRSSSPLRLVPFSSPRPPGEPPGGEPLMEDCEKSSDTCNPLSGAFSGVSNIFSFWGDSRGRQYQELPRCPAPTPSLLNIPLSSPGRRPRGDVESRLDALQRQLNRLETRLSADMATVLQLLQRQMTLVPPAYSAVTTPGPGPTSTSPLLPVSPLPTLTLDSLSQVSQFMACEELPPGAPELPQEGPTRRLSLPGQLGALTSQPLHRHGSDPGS

M2 = M2 (Homo sapiens, UniProt P08172); test: Off-target profiling panel; type: binding; conditions: read-out: Inhibition by MBE1 at 10 μM (%)
M3 = M3 (Homo sapiens, UniProt P20309); test: Off-target profiling panel; type: binding; conditions: read-out: Inhibition by MBE1 at 10 μM (%)
Sequence of M3 (P20309 whole entry): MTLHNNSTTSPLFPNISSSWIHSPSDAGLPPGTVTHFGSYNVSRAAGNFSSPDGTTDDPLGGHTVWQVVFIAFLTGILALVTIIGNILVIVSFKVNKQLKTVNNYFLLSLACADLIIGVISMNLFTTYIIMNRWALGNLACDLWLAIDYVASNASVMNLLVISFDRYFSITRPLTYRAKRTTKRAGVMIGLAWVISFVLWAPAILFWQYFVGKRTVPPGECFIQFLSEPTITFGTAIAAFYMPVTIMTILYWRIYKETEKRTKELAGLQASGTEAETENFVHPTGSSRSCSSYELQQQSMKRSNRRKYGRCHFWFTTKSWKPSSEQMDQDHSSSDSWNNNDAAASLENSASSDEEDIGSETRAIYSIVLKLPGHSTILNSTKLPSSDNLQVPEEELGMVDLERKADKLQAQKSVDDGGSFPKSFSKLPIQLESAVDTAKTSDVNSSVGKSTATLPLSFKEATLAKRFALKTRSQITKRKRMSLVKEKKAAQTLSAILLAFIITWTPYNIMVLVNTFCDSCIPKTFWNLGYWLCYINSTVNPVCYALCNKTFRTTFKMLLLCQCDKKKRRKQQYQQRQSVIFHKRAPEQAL

AR = AR (Homo sapiens, UniProt P10275); test: Off-target profiling panel; type: binding; conditions: read-out: Inhibition by MBE1 at 10 μM (%)
Sequence of AR (P10275 whole entry): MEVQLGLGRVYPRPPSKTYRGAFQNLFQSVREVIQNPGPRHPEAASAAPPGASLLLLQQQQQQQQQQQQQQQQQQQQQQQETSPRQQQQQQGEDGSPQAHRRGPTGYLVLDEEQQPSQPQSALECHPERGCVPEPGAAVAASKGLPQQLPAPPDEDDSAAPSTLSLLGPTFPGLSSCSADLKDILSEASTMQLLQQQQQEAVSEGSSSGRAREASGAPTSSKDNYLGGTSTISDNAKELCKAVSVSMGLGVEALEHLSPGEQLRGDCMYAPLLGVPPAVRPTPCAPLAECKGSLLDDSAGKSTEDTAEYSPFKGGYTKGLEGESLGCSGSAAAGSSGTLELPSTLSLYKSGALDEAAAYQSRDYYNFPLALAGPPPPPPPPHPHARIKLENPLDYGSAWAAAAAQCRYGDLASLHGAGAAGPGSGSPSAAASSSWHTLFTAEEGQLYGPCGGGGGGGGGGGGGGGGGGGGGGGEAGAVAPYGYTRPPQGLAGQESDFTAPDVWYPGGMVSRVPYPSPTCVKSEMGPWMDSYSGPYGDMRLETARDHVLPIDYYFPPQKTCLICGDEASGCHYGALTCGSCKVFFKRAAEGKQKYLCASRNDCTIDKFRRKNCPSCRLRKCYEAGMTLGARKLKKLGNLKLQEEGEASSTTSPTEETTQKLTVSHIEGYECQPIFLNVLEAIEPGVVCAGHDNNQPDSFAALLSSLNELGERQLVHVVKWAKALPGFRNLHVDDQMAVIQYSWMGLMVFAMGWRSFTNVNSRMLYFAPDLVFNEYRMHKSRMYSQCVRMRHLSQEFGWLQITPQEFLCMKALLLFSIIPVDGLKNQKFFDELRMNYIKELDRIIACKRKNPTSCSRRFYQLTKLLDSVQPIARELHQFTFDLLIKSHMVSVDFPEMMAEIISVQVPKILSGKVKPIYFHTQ

op-kappa = op-kappa (Homo sapiens, UniProt P41145); test: Off-target profiling panel; type: binding; conditions: read-out: Inhibition by MBE1 at 10 μM (%)
Sequence of op-kappa (P41145 whole entry): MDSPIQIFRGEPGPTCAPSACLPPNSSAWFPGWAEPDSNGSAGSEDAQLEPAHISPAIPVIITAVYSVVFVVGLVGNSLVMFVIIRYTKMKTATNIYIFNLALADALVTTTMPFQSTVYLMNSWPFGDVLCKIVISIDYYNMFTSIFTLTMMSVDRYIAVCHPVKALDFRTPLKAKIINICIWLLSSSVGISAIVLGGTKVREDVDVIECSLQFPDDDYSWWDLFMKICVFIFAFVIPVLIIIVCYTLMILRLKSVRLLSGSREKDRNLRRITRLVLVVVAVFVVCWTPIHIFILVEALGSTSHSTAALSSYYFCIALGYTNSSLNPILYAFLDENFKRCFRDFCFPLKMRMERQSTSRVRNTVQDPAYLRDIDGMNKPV

CB2 = CB2 (Homo sapiens, UniProt P34972); test: Off-target profiling panel; type: binding; conditions: read-out: Inhibition by MBE1 at 10 μM (%)
Sequence of CB2 (P34972 whole entry): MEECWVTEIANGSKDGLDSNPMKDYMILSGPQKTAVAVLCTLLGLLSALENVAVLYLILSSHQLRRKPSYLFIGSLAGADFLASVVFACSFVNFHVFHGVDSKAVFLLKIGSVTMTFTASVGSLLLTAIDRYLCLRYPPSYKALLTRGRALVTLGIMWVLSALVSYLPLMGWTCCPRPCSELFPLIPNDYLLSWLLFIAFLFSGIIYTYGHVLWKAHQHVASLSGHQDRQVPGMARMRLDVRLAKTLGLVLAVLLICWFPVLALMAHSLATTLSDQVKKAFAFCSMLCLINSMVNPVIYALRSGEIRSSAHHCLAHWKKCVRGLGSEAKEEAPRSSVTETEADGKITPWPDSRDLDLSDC

hNav1.5 = hNav1.5 (Homo sapiens, UniProt Q14524); test: Off-target profiling panel; type: cell-based; conditions: read-out: Inhibition by MBE1 at 10 μM (%)
ALDH1A3 = molecular target: T2, ALDH1A3 (Homo sapiens, UniProt P47895); test: Cellular thermal shift assay (CETSA) in A375 cells; type: cell-based; set-up: endogenous in cells; host or cells: A375 cells; conditions: 100 nM, 1h at 37°C
T2 sequence (P47895 1-512): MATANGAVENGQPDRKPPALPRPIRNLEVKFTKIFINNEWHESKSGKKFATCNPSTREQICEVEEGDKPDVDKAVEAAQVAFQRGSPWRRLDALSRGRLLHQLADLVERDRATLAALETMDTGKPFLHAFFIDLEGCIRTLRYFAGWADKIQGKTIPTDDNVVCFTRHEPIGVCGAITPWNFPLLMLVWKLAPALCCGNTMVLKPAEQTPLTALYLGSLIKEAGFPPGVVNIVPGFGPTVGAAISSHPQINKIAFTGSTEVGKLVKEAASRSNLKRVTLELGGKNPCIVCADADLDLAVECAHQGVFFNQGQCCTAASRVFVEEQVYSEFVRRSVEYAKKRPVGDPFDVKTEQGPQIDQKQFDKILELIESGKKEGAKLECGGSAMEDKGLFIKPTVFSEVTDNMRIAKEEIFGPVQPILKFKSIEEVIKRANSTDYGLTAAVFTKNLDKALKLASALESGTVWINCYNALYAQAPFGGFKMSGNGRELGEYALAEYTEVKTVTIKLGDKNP
Procedure: CETSA was performed according to protocols described before.[85] Briefly, 6 × 10cm dishes of A375 cells were collected and treated with 100 nM MBE1 or 0.1% DMSO for 1h at 37°C. Afterward, cells were pelleted through centrifugation at 300g for 5 min. Cells were then washed with ice-cold PBS and resuspended in 800 μL of PBS. Cell suspension was aliquoted to 7xPCR tubes with 100 μL each and subjected to thermal denaturation at 46.3, 48.6, 52.2, 56.5, 60.1, 62.5, 64.0°C for 3 min. The resulting sample was snap frozen in liquid nitrogen followed by incubation at room temperature until fully thawed. This procedure was performed twice followed by brief vortexing and mixing to release soluble proteins from the cells. Samples were then transferred to 1.5 mL Eppendorf tubes and centrifuged at 20,000g for 20 min at 4°C, 90 μL of the resulting supernatant was collected into another new 1.5 mL Eppendorf tube and subjected to protein analysis by western blot (WB). NPTN (proteintech #28022-1-AP) and ALDH1A3 (abcam #ab129815) were used to detect target proteins while GelCode Blue Stain Reagent (Thermofisher scientific #24590) was used to stain for total proteins loaded in the WB analysis.

ALDH1L1 = molecular target: T3, ALDH1L1 (Homo sapiens, UniProt O75891); test: Recombinant enzyme activity assay; type: biochemical; conditions: selectivity profiling
T3 construct: made in house; host or cells: BL21-DE3 E. coli

ALDH1L2 = molecular target: T4, ALDH1L2 (Homo sapiens, UniProt Q3SY69); test: Recombinant enzyme activity assay; type: biochemical; conditions: selectivity profiling
T4 construct: made in house; host or cells: BL21-DE3 E. coli

ALDH3A1 = molecular target: T5, ALDH3A1 (Homo sapiens, UniProt P30838); test: Recombinant enzyme activity assay; type: biochemical; conditions: selectivity profiling
T5 construct: made in house; host or cells: BL21-DE3 E. coli

purified human ALDH1A3 = molecular target: T6, purified human ALDH1A3 (Homo sapiens, UniProt P47895); test: Nanoscale differential scanning fluorimetry (DSF); type: binding; conditions: 10 and 100 μM
T6 construct: made in house; host or cells: BL21-DE3 E. coli

ALDH1A3 mRNA = test: RT-qPCR of ALDH1A3 mRNA after treatment; type: cell-based, human; conditions: multiple cell lines

T1 sequence (Q9ULW0 whole entry): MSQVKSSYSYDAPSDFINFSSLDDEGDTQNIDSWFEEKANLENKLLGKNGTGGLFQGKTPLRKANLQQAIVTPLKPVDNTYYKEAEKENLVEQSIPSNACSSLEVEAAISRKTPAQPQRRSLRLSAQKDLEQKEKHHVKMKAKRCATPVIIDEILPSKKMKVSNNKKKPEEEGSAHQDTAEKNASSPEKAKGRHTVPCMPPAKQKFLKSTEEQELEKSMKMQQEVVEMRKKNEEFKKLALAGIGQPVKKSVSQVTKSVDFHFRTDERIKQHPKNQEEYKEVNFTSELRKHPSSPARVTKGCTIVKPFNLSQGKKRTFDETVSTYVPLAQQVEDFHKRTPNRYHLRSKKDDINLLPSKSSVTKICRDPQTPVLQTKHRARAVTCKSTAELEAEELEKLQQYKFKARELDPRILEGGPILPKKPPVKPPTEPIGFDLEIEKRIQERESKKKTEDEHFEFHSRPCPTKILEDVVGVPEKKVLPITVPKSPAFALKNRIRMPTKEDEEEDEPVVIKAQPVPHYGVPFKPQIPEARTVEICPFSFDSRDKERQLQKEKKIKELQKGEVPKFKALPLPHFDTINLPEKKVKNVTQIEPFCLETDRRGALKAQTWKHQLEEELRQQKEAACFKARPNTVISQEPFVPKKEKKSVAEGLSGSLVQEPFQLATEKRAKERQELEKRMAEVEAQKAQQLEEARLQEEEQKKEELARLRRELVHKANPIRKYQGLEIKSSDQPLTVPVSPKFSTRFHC

| inhibitory activity against ALDH1L1 (in words) (ALDH1L1) | inhibitory activity against ALDH1L2 (in words) (ALDH1L2) | inhibitory activity against ALDH3A1 (in words) (ALDH3A1) | thermal stabilization of purified ALDH1A3 (purified human ALDH1A3) [°C] | SMILES | 100nM MBE1 Tm (TPX2) | DMSO-100nM MBE1 TM (TPX2) | inhibition at 10 µM (Alpha2A) [%] | inhibition at 10 µM (hERG) [%] | inhibition at 10 µM (M2) [%] | inhibition at 10 µM (M3) [%] | inhibition at 10 µM (AR) [%] | inhibition at 10 µM (op-kappa) [%] | inhibition at 10 µM (CB2) [%] | inhibition at 10 µM (hNav1.5) [%] | stabilization of ALDH1A3 in CETSA (in words) (ALDH1A3) | feedback effect on ALDH1A3 expression (in words) (ALDH1A3 mRNA) |
| --- | --- | --- | --- | --- | --- | --- | --- | --- | --- | --- | --- | --- | --- | --- | --- | --- |
| – | – | – | – | CCc1cnccc1C(=O)Nc1cc2c(cc1F)NC(=O)CC2 [MBE1, 3-ethyl-N-(7-fluoro-2-oxo-3,4-dihydro-1H-quinolin-6-yl)pyridine-4-carboxamide] | 64 | -7.655 | -1.15 | -28.1 | -6.51 | -13.4 | -10.1 | -12.6 | 5.07 | -0.59 | increased stability and solubility at high temperatures | – |
| no inhibition | no inhibition | no inhibition | > 8.5 | CCc1ccccc1C(=O)Nc1cc2c(cc1F)NC(=O)CC2 [MBE1.5, 2-ethyl-N-(7-fluoro-2-oxo-3,4-dihydro-1H-quinolin-6-yl)benzamide] | – | – | – | – | – | – | – | – | – | – | – | no feedback effect |
